Laboratory results reported in PMC10611828 (European Journal of Nuclear Medicine and Molecular Imaging, 2023).
Read-outs that look alike come from different tables or passages of the source.

Legend:
[1] = Stability in human serum at 37 °C (radio-HPLC); format: in vitro ADME; conditions: read-out: intact radiolabeled ligand (RCP)
Description: (§1) The ^177Lu-labeled peptides were incubated in 300-μL phosphate buffered saline (PBS; Gibco, ThermoFisher, The Netherlands) at 37 °C, and their stability was verified after 1, 4, 24, 48, and 72 h by radio-HPLC (Supplementary Fig. 2). The stability in serum was determined by incubating the radiolabeled compounds into 300 μL of mouse serum (Invitrogen, USA) or human serum (Sigma Aldrich, USA) at 37 °C (Supplementary Fig. 3, 4). At each time point post-incubation, 35 μL of the mixture was added to an Eppendorf tube, and the proteins were precipitated by adding an equal volume of acetonitrile. The tubes were centrifuged at 16,000 rpm, 4 °C for 20 min, and the stability was monitored by radio-HPLC, expressed as the RCP at the different time points.

[2] = In vivo biodistribution and clearance in PC-3 tumor-bearing mice; conditions: male, NMRI-Foxn1 nu/nu, mouse, iv, total radioactivity, i.v.; for tissue uptake at 1 h: 1 h p.i.; for tissue uptake at 4 h: 4 h p.i.; for tissue uptake at 24 h: 24 h p.i.; for tissue uptake at 48 h: 48 h p.i.; for tissue uptake at 72 h: 72 h p.i.
Description: All animal experiments were approved by the Animal Welfare Committee of the Erasmus MC, and all experiments were conducted in accordance to institutional guidelines.
At 1, 4, 24, 48, and 72 h post-injection (p.i.), animals were sedated using 2.5% isoflurane in oxygen, and blood was collected via the orbital vein, after which the animals were euthanized using cervical dislocation. Subsequently, the following organs were collected; the tail, tumor, spleen, liver, pancreas, small intestine, colon, coecum, kidneys, lung, and muscle. […] The collected tumor and organs were weighed, and the radioactivity was measured in the gamma counter. The biodistribution data are expressed as percentage injected dose per gram of tissue (% ID/g). Animal numbers per group are indicated in Supplementary Table 1 and 2.
Statistical analysis was performed using Graphpad Prism version 9.0.0. Outliers were identified using the ROUT method with a Q value of 1%. IC50 curves were determined using non-linear regression.

[3] = Stability in mouse serum at 37 °C (radio-HPLC); format: in vitro ADME; conditions: read-out: intact radiolabeled ligand (RCP)
Description: as §1

[4] = PC-3 tumor, read-out: % uptake PC-3 tumor
[5] = gastrointestinal tract, read-out: % uptake gastrointestinal tract
[6] = kidney, read-out: % uptake kidney
[7] = liver, read-out: % uptake liver
[8] = muscle, read-out: % uptake muscle
[9] = pancreas, read-out: % uptake pancreas
[10] = prostate, read-out: % uptake prostate
[11] = spleen, read-out: % uptake spleen

Question: With CC(C)C[C@H](NC(=O)C[C@H](O)[C@H](CC(C)C)NC(=O)[C@H](Cc1c[nH]cn1)NC(=O)CNC(=O)[C@@H](NC(=O)[C@H](C)NC(=O)[C@H](Cc1c[nH]c2ccccc12)NC(=O)[C@H](CCC(N)=O)NC(=O)[C@@H](Cc1ccccc1)NC(=O)CN1CCC(NC(=O)CN2CCN(CC(=O)O)CCN(CC(=O)O)CCN(CC(=O)O)CC2)CC1)C(C)C)C(N)=O [[^177Lu]Lu-RM2, metal not drawn] as the molecule, how does the remaining at 1 h ([1]; 1 h) read?
Answer: 96.7 ± 0.7%

Question: What about the remaining at 4 h ([1]; 4 h) of the same molecule?
Answer: 95.5 ± 1.1%

Question: What about the remaining at 24 h ([1]; 24 h) of the same molecule?
Answer: 94.9 ± 1.5%

Question: What about the remaining at 48 h ([1]; 48 h) of the same molecule?
Answer: 92.3 ± 1.9%

Question: What about the remaining at 72 h ([1]; 72 h) of the same molecule?
Answer: 88.4 ± 0.6%

Question: And the tissue uptake at 1 h [2, 4]?
Answer: 9.27 ± 1.81 %ID/g

Question: What about the tissue uptake at 4 h [2, 4] of the same molecule?
Answer: 9.14 ± 0.94 %ID/g

Question: What about the tissue uptake at 24 h [2, 4] of the same molecule?
Answer: 7.32 %ID/g

Question: And the tissue uptake at 48 h [2, 4]?
Answer: 5.47 %ID/g

Question: What about the tissue uptake at 72 h [2, 4] of the same molecule?
Answer: 2.97 %ID/g

Question: What about the tissue uptake at 1 h ([2]; blood, read-out: % uptake blood) of the same molecule?
Answer: 0.3 %ID/g

Question: What about the tissue uptake at 1 h [2, 5] of the same molecule?
Answer: 1.75 %ID/g

Question: What about the tissue uptake at 4 h [2, 5] of the same molecule?
Answer: 0.56 %ID/g

Question: And the tissue uptake at 24 h [2, 5]?
Answer: 0.05 %ID/g

Question: What about the tissue uptake at 48 h [2, 5] of the same molecule?
Answer: 0.03 %ID/g

Question: What about the tissue uptake at 72 h [2, 5] of the same molecule?
Answer: 0.01 %ID/g

Question: And the tissue uptake at 1 h [2, 6]?
Answer: 3 %ID/g

Question: And the tissue uptake at 4 h [2, 6]?
Answer: 1.69 %ID/g

Question: And the tissue uptake at 24 h [2, 6]?
Answer: 0.63 %ID/g

Question: What about the tissue uptake at 48 h [2, 6] of the same molecule?
Answer: 0.26 %ID/g

Question: And the tissue uptake at 72 h [2, 6]?
Answer: 0.12 %ID/g

Question: What about the tissue uptake at 1 h [2, 7] of the same molecule?
Answer: 0.2 %ID/g

Question: What about the tissue uptake at 4 h [2, 7] of the same molecule?
Answer: 0.09 %ID/g

Question: What about the tissue uptake at 24 h [2, 7] of the same molecule?
Answer: 0.04 %ID/g

Question: What about the tissue uptake at 48 h [2, 7] of the same molecule?
Answer: 0.03 %ID/g

Question: What about the tissue uptake at 72 h [2, 7] of the same molecule?
Answer: 0.02 %ID/g

Question: What about the tissue uptake at 1 h ([2]; lung, read-out: % uptake lungs) of the same molecule?
Answer: 0.3 %ID/g

Question: And the tissue uptake at 4 h ([2]; lung, read-out: % uptake lungs)?
Answer: 0.04 %ID/g

Question: And the tissue uptake at 24 h ([2]; lung, read-out: % uptake lungs)?
Answer: 0.02 %ID/g

Question: And the tissue uptake at 48 h ([2]; lung, read-out: % uptake lungs)?
Answer: 0.01 %ID/g

Question: And the tissue uptake at 72 h ([2]; lung, read-out: % uptake lungs)?
Answer: 0.01 %ID/g

Question: What about the tissue uptake at 1 h [2, 8] of the same molecule?
Answer: 0.06 %ID/g

Question: What about the tissue uptake at 4 h [2, 8] of the same molecule?
Answer: 0.01 %ID/g

Question: And the tissue uptake at 24 h [2, 8]?
Answer: 0.01 %ID/g

Question: What about the tissue uptake at 1 h [2, 9] of the same molecule?
Answer: 14.4 ± 2.56 %ID/g

Question: What about the tissue uptake at 4 h [2, 9] of the same molecule?
Answer: 2.07 ± 0.3 %ID/g

Question: What about the tissue uptake at 24 h [2, 9] of the same molecule?
Answer: 0.25 %ID/g

Question: And the tissue uptake at 48 h [2, 9]?
Answer: 0.14 %ID/g

Question: What about the tissue uptake at 72 h [2, 9] of the same molecule?
Answer: 0.05 %ID/g

Question: And the tissue uptake at 1 h [2, 10]?
Answer: 1.08 %ID/g

Question: And the tissue uptake at 4 h [2, 10]?
Answer: 0.03 %ID/g

Question: And the tissue uptake at 24 h [2, 10]?
Answer: 0.03 %ID/g

Question: And the tissue uptake at 48 h [2, 10]?
Answer: 0.02 %ID/g

Question: And the tissue uptake at 72 h [2, 10]?
Answer: 0.01 %ID/g

Question: What about the tissue uptake at 1 h [2, 11] of the same molecule?
Answer: 0.19 %ID/g

Question: And the tissue uptake at 4 h [2, 11]?
Answer: 0.06 %ID/g

Question: What about the tissue uptake at 24 h [2, 11] of the same molecule?
Answer: 0.04 %ID/g

Question: And the tissue uptake at 48 h [2, 11]?
Answer: 0.03 %ID/g

Question: And the tissue uptake at 72 h [2, 11]?
Answer: 0.02 %ID/g

Question: What about the remaining at 1 h ([3]; 1 h) of the same molecule?
Answer: 90.9 ± 0.5%

Question: And the remaining at 24 h ([3]; 24 h)?
Answer: 29.6 ± 1.2%

Question: And the remaining at 48 h ([3]; 48 h)?
Answer: 17.1 ± 3.5%

Question: What about the remaining at 72 h ([3]; 72 h) of the same molecule?
Answer: 5.3 ± 0.9%
